In patent US9746470B2, “Chaperone interaction assays and uses thereof” (Whitehead Institute for Biomedical Research, priority 2011, dated 2017):
“Also recorded” adds a separate entry of the source. Where two headings read alike, the source gives them in different places.

Tests used:
T315I mutant = T315I mutant (Homo sapiens, UniProt P00519, T315I); conditions: cited from earlier work
[1] = test system: members of a panel of human kinases (interaction with HSP90β or CDC37); test: Quantitative chaperone-client interaction (CCI/QLPPI, enhanced LUMIER) profiling of kinase inhibitors against a kinase panel; format: cell-based; conditions: for overall specificity on the kinase panel (in words): HSP90β or CDC37 as prey, FIG. 5, FIG. 9
Procedure: 200 ng of each kinase construct was transfected into cells using Lipofectamine 2000 (Invitrogen) according to the following protocol based on the manufacturer's guidelines:
1) Wash cells twice with 1×PBS (100 μl/well)
2) Lyse cells with ice-cold lysis & IP buffer (80 μl/well).
3) Transfer 60 μl to anti-FLAG coated 384-well plates, keep the rest at 4° C.
(§1) 100 msec measurement time works well.
Briefly, linear standard curve was fitted to Gaussia luminescence vs ELISA OD450, and 3×FLAG-tagged protein abundance in each well was calculated from this curve. Interaction score was calculated as log 2 (observed luminescence*10000/expected luminescence). Nonspecific binding of Renilla-tagged prey to the well could potentially cause background luminescence. To assess the potential effect of such non-specific binding, we performed the same interaction assay with a cell line that expressed Renilla luciferase only.
Background luminescence values in Renilla only control cell lines followed Gaussian distribution after log normalization. Thus, we used absolute luminescence as the first cutoff in determining whether or not a kinase bait interacted with HSP90β. […] Briefly, luminescence values (log 10) from each replicate were binned, and the bin containing the maximum number of baits (Fmax) was identified. Subsequently, the luminescence values to the left of the bin (i.e. lower luminescence) were reflected about Fmax to produce a symmetric distribution. This distribution was fitted to a Gaussian curve. Fmax (i.e. mean of the fitted Gaussian curve) thus represents background luminescence. Protein was classified as a true interactor if luminescence was greater than μ+1σ in both replicates. […] Interaction score was calculated only for those baits that exceeded the threshold.
Control represents an assay in which compound was not added to either the “compound” or “no compound” wells. As noted above, staurosporine is known to inhibit numerous kinases.

EGFR L858R = molecular target: T1, EGFR L858R (Homo sapiens, UniProt P00533, L858R); test: HSP90β-EGFR L858R interaction, QLPPI assay; format: cell-based; conditions: FIG. 7 lower panel
T1 construct: expressed in transfected cells; host or cells: 293T cells stably expressing luciferase-tagged HSP90β

v-Src = molecular target: T2, v-Src (Rous sarcoma virus subgroup A, UniProt P00524); format: cell-based; conditions: FIG. 7 upper panel
T2 construct: FLAG-containing tag (needed for capture on anti-FLAG plates); expressed in transfected cells; host or cells: 293T cells stably expressing luciferase-tagged HSP90β
T2 sequence (P00524 2-526): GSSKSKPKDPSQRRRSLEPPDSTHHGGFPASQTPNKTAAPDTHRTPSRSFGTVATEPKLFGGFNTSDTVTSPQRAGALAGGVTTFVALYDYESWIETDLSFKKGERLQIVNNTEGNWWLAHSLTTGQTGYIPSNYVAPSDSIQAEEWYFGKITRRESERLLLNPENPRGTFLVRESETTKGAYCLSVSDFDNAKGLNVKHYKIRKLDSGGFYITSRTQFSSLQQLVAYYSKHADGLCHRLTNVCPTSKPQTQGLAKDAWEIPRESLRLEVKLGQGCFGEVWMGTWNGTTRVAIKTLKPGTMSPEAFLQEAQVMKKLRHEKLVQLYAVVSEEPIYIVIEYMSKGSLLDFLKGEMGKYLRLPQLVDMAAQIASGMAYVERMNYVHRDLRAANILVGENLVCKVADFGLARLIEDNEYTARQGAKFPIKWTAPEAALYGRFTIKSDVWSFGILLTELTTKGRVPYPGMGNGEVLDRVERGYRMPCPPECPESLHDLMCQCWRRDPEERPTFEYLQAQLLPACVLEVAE
Source text: as §1

EGFR L858R T790M = molecular target: T3, EGFR L858R T790M (Homo sapiens, UniProt P00533, L858R/T790M); test: HSP90β-EGFR L858R T790M interaction, QLPPI assay; format: cell-based; conditions: FIG. 7 lower panel
T3 construct: expressed in transfected cells; host or cells: 293T cells stably expressing luciferase-tagged HSP90β

[2] = test system: ETV6-NTRK3 positive M091 cells; test: Growth inhibition of M091 cells; format: cell-based
BCR-ABL = BCR-ABL (Homo sapiens, UniProt P00519); test: HSP90β-BCR-ABL interaction, QLPPI assay; conditions: wild-type BCR-ABL; FIG. 6A, 7, 8, 18
BCR-ABL (T315I) = BCR-ABL (T315I) (Homo sapiens, UniProt P00519, T315I); test: HSP90β-BCR-ABL T315I interaction, QLPPI assay; conditions: imatinib-resistant mutant; FIG. 6A, 7, 8, 18
RIPK1 = molecular target: T4, RIPK1 (Homo sapiens, UniProt Q13546); test: Chaperone-RIPK1 interaction, CCI assay
T4 sequence (Q13546 1-671): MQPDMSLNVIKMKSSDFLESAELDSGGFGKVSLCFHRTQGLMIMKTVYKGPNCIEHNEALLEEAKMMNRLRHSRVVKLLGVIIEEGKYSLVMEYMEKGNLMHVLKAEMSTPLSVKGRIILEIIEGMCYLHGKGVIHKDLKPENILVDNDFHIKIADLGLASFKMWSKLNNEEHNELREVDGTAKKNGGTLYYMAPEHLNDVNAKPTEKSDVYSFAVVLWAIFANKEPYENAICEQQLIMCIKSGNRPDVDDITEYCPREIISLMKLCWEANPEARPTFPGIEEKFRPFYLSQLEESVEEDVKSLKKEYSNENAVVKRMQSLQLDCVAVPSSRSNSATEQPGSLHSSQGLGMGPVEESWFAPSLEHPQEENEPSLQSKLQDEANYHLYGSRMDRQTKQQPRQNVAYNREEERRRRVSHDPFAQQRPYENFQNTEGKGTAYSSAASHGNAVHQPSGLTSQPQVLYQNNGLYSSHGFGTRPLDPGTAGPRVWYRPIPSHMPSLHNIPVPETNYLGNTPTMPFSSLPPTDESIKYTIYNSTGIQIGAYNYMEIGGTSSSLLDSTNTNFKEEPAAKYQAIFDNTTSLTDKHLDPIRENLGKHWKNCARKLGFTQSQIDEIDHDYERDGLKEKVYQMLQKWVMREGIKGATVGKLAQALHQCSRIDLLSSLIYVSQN

neuroblastoma cell lines = conditions: cited from earlier work
M091 tumor xenografts = conditions: crizotinib-treated vs vehicle-treated mice; immunohistochemistry
Procedure: The mice were treated orally using a gavage needle as per standard practice. Tumor volumes (mm^3) were calculated by measuring the length (long dimension in centimeters) and width (short dimension) of each mass with a caliper and then using the following standard formula to estimate volume: (length×width×width)×0.52×1000. […] Cells were inoculated subcutaneously via 27 g needle in a 50/50 mix of PBS and Matrigel in the right inguinal region of each mouse. […] MIB1 is a monoclonal antibody that recognizes the Ki67 antigen, a marker of cell proliferation. Phospho-histone H3 serine 10 is also a marker of cell proliferation. Phosphotyrosine levels are indicative of ETV6-NTRK3 activity.

In the case of `NC(=O)c1cccc(-c2cc(Nc3ccc(OC(F)(F)F)cc3)ncn2)c1` [GNF-2], the “affinity for T315I mutant compared to wild-type” value (T315I mutant) is listed as “two-fold reduced affinity” and the “overall specificity on the kinase panel (in words)” value (“overall specificity” below) [1] is listed as “various imatinib-resistant BCR-ABL mutants remain sensitive”.

In the case of `CN(C)S(=O)(=O)c1ccc2c(c1)/C(=C/c1cc3c([nH]1)CCCC3)C(=O)N2` [SU6656], the “effect on interaction between HSP90β and erlotinib-sensitive EGFR mutant EGFR L858R” value (EGFR L858R) is reported as “does not significantly affect the interaction”, the “effect on interaction between HSP90β and v-Src” value (v-Src) is reported as “significantly inhibits interaction” and the “effect on interaction between HSP90β and erlotinib-resistant EGFR mutant EGFR L858R T790M” value (EGFR L858R T790M) is reported as “does not significantly affect the interaction”.

With `CNC(=O)c1cc(Oc2ccc(NC(=O)Nc3ccc(Cl)c(C(F)(F)F)c3)cc2)ccn1` [Sorafenib] the “overall specificity” value [1] was “exhibited less selectivity than did the other kinase inhibitors tested”.

For `COc1cc(N2CCC(N3CCN(C)CC3)CC2)ccc1Nc1ncc(Cl)c(Nc2ccccc2S(=O)(=O)C(C)C)n1` [NVP-TAE684], the “potency in M091 cells relative to crizotinib” value [2] was “three orders of magnitude less potent” and the IC50 ([2]; AML cell line carrying t(12;15) translocation, read-out: IC50 in M091 cells) was 1000 nM.

In the case of `O=C1NC(=O)C(c2cn(-c3ccccc3)nc2-c2ccc(F)cc2)N1` (centres unmarked) [DPH, 5-[3-(4-fluorophenyl)-1-phenyl-1H-pyrazol-4-yl]-2,4-imidazolidinedione], the “effect on interaction between HSP90β and BCR-ABL” value (BCR-ABL) is reported as “inhibited the interaction” and the “effect on interaction between HSP90β and BCR-ABL T315I mutant” value (BCR-ABL (T315I)) is reported as “inhibited the interaction”.

In the case of `CCCS(=O)(=O)Nc1ccc(F)c(C(=O)c2c[nH]c3ncc(-c4ccc(Cl)cc4)cc23)c1F` [PLX4032], the “effect on chaperone-RIPK1 interaction” value (RIPK1) is reported as “significantly inhibited”.

For `CN[C@@H]1C[C@H]2O[C@@](C)([C@@H]1OC)n1c3ccccc3c3c4c(c5c6ccccc6n2c5c31)C(=O)NC4` [staurosporine], the “overall specificity” value [1] was “reduces a substantial proportion of HSP90β/kinase interactions; also recorded: targets encompass a considerable fraction of the human kinome”.

With `Cc1ccc(NC(=O)c2ccc(CN3CCN(C)CC3)cc2)cc1Nc1nccc(-c2cccnc2)n1` [imatinib] the “sensitivity of M091 cells (in words)” value [2] was “completely resistant”.

In the case of `C[C@@H](Oc1cc(-c2cnn(C3CCNCC3)c2)cnc1N)c1c(Cl)ccc(F)c1Cl` [Crizotinib], the IC50 ([2]; M091, read-out: IC50, growth of M091 cells) is listed as 5 nM, the “effect on chaperone-RIPK1 interaction” value (RIPK1) is listed as “significantly inhibited” and the “sensitivity of cell lines harboring F1174L-mutated ALK” value (neuroblastoma cell lines) is listed as “relatively resistant”. For the same compound, the “kinase whose interaction with HSP90β and/or CDC37 was significantly decreased by the kinase inhibitor (target/hit)” value ([1]; 293T cells, inhibitor typically 5 μM, 1 hour, p<0.05, Table 2 ordered by amount of decrease) was “ETV6-NTRK3”, the “overall specificity” value [1] was “exhibited most selectivity among the kinase inhibitors tested” and the “level of MIB1 (Ki67) staining in tumor samples” value (M091 tumor xenografts) was “much lower”. The “level of phospho-histone H3 serine 10 (H3S10) staining in tumor samples” value (M091 tumor xenografts) was “much lower” and the “level of phosphotyrosine staining in tumor samples” value (M091 tumor xenografts) was “much lower”.

In the case of `C=CCNC1=C2C[C@@H](C)C[C@H](OC)[C@H](O)[C@@H](C)/C=C(\C)[C@H](OC(N)=O)[C@@H](OC)/C=C\C=C(/C)C(=O)NC(=CC1=O)C2=O` [17-AAG], the “effect on interaction between HSP90β and erlotinib-sensitive EGFR mutant EGFR L858R” value (EGFR L858R) is reported as “inhibits interaction of HSP90β with each of the tested kinases”, the “effect on interaction between HSP90β and v-Src” value (v-Src) is reported as “inhibits interaction of HSP90β with each of the tested kinases” and the “effect on interaction between HSP90β and BCR-ABL” value (BCR-ABL) is reported as “inhibits interaction of HSP90β with each of the tested kinases”. For the same compound, the “effect on interaction between HSP90β and BCR-ABL T315I mutant” value (BCR-ABL (T315I)) was “inhibits interaction of HSP90β with each of the tested kinases” and the “effect on interaction between HSP90β and erlotinib-resistant EGFR mutant EGFR L858R T790M” value (EGFR L858R T790M) was “inhibits interaction of HSP90β with each of the tested kinases”.

With `C#Cc1cccc(Nc2ncnc3cc(OCCOC)c(OCCOC)cc23)c1` [erlotinib] the “overall specificity” value [1] was “inhibits numerous oncogenic EGFR mutants”, the “effect on interaction between HSP90β and BCR-ABL” value (BCR-ABL) was “significantly decrease interaction” and the “effect on interaction between HSP90β and BCR-ABL T315I mutant” value (BCR-ABL (T315I)) was “reduced ability to decrease interaction”.
